Key:
Experiment in all cases: relative viability (nuclei count vs DMSO), 5 days (fraction); higher = more cells survive
[1] = compound: C1CC1C(=O)NC2=NNC3=C2C=CC(=C3)C4=CC(=CC=C4)C(=O)NC5CC5 [XMD13-2] + COc1cccc2cc(-c3nc([C@H]4CC[C@H](C(=O)O)CC4)n4ncnc(N)c34)[nH]c12 [OSI-027] (partner 0.5 µM)
Summary of the method: (§1)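 For relative viability, nuclei counts in treated wells were divided by those in vehicle wells. Lung cancer cell lines had been pin-tool dosed in 1536-well plates the day after seeding and cultured for 5 days, then fixed and stained in one step (final 0.05% Triton X-100, 1% formaldehyde, 1 ug/ml Hoechst) and imaged at 4×. Doses were one drug alone or a fixed anchor-drug dose plus five library-drug doses (not always all listed) in √10 steps, and values are duplicate-plate medians.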

[2] = compound: C1CC1C(=O)NC2=NNC3=C2C=CC(=C3)C4=CC(=CC=C4)C(=O)NC5CC5 [XMD13-2] + Cc1nc(NC(=O)N2CCC[C@H]2C(N)=O)sc1-c1ccnc(C(C)(C)C(F)(F)F)c1 [Alpelisib] (partner 2 µM)
Summary of the method: as §1

[3] = compound: Cc1ccc(C(=O)Nc2cccc(C(F)(F)F)c2)cc1Nc1cncc(C(N)=O)c1 [ALW-II-49-7] + Nc1ncn([C@H]2C[C@H](O)[C@@H](CO)O2)c(=O)n1 [Decitabine] (partner 2 µM)
Summary of the method: as §1

[4] = compound: Cc1nc(Nc2ncc(C(=O)Nc3c(C)cccc3Cl)s2)cc(N2CCN(CCO)CC2)n1 [Dasatinib] + COc1cccc2cc(-c3nc([C@H]4CC[C@H](C(=O)O)CC4)n4ncnc(N)c34)[nH]c12 [OSI-027] (partner 0.5 µM)
Summary of the method: as §1

Row | Cell Line | relative viability ([1]; first compound 0.05 µM) | relative viability ([1]; first compound 0.1581 µM) | relative viability ([1]; first compound 0.5 µM) | relative viability ([1]; first compound 1.581 µM) | relative viability ([1]; first compound 5 µM) | relative viability ([2]; first compound 0.05 µM) | relative viability ([2]; first compound 0.1581 µM) | relative viability ([2]; first compound 0.5 µM) | relative viability ([2]; first compound 1.581 µM) | relative viability ([2]; first compound 5 µM) | relative viability ([3]; first compound 0.08 µM) | relative viability ([3]; first compound 0.253 µM) | relative viability ([3]; first compound 0.8 µM) | relative viability ([3]; first compound 2.53 µM) | relative viability ([3]; first compound 8 µM) | relative viability ([4]; first compound 0.005 µM) | relative viability ([4]; first compound 0.01581 µM) | relative viability ([4]; first compound 0.05 µM) | relative viability ([4]; first compound 0.1581 µM) | relative viability ([4]; first compound 0.5 µM)
1 | NCI-H1651 | 0.813 | 0.716 | 0.768 | 0.747 | 0.778 | 1.19 | 0.899 | 0.942 | 0.913 | 1.02 | 0.637 | 0.669 | 0.606 | 0.604 | 0.51 | 0.801 | 0.503 | 0.529 | 0.572 | 0.487
2 | NCI-H441 | 0.682 | 0.777 | 0.578 | 0.485 | 0.588 | 0.675 | 1.15 | 0.649 | 0.801 | 0.547 | 0.257 | 0.229 | 0.253 | 0.208 | 0.253 | 0.784 | 0.582 | 0.742 | 0.424 | 0.307
3 | ABC-1 | 0.693 | 0.486 | 0.572 | 0.427 | 0.368 | 1.29 | 1.15 | 0.893 | 0.928 | 0.998 | 1.02 | 1.11 | 1.01 | 1.35 | 0.947 | 0.506 | 0.429 | 0.363 | 0.36 | 0.345
4 | NCI-H2126 | 0.8 | 0.665 | 0.666 | 0.702 | 0.837 | 0.825 | 0.754 | 0.754 | 0.767 | 0.795 | 0.604 | 0.562 | 0.545 | 0.587 | 0.592 | 0.722 | 0.551 | 0.623 | 0.611 | 0.307
5 | RERF-LC-KJ | 0.655 | 0.662 | 0.624 | 0.564 | 0.452 | 0.776 | 0.902 | 0.842 | 0.641 | 0.91 | 0.694 | 0.783 | 0.729 | 0.732 | 0.611 | 0.576 | 0.475 | 0.514 | 0.382 | 0.376
6 | NCI-H1666 | 0.869 | 0.839 | 0.862 | 0.814 | 0.817 | 1.02 | 1.07 | 0.936 | 0.874 | 0.879 | 0.751 | 0.735 | 0.735 | 0.898 | 0.714 | 0.915 | 0.843 | 0.849 | 0.733 | 0.486
7 | PC-14 | 1.04 | 0.832 | 0.98 | 0.842 | 0.971 | 1.01 | 0.936 | 1.01 | 0.931 | 1.11 | 0.247 | 0.22 | 0.218 | 0.266 | 0.222 | 0.99 | 0.772 | 0.679 | 0.384 | 0.0679
8 | NCI-H1915 | 0.756 | 0.591 | 0.645 | 0.548 | 0.595 | 1.1 | 1.08 | 1.04 | 1.05 | 1.06 | 0.257 | 0.294 | 0.261 | 0.262 | 0.264 | 0.559 | 0.516 | 0.463 | 0.187 | 0.164
9 | NCI-H661 | 0.848 | 0.688 | 0.786 | 0.63 | 0.494 | 0.751 | 0.854 | 0.506 | 0.4 | 0.448 | 0.519 | 0.583 | 0.574 | 0.541 | 0.5 | 0.686 | 0.604 | 0.586 | 0.522 | 0.402
10 | SK-MES-1 | 0.597 | 0.571 | 0.618 | 0.564 | 0.673 | 0.935 | 0.922 | 0.869 | 0.876 | 1.04 | 0.354 | 0.35 | 0.473 | 0.445 | 0.398 | 0.738 | 0.57 | 0.409 | 0.21 | 0.14
11 | NCI-H1944 | 0.499 | 0.395 | 0.362 | 0.471 | 0.43 | 1.02 | 0.85 | 0.889 | 0.939 | 0.778 | 0.421 | 0.432 | 0.423 | 0.486 | 0.389 | 0.365 | 0.404 | 0.284 | 0.179 | 0.174
12 | HCC-78 | 0.432 | 0.394 | 0.317 | 0.38 | 0.345 | 0.392 | 0.338 | 0.327 | 0.304 | 0.352 | 0.68 | 0.639 | 0.71 | 0.666 | 0.619 | 0.317 | 0.361 | 0.267 | 0.326 | 0.257
13 | PC-3 [JPC-3] | 0.831 | 0.663 | 0.746 | 0.707 | 0.754 | 1.05 | 0.983 | 1.06 | 1.02 | 0.936 | 0.785 | 0.95 | 0.771 | 0.814 | 0.873 | 0.764 | 0.739 | 0.759 | 0.73 | 0.38
14 | LCLC-103H | 0.588 | 0.497 | 0.47 | 0.509 | 0.506 | 0.91 | 0.979 | 0.981 | 0.959 | 0.851 | 0.757 | 0.781 | 0.726 | 0.727 | 0.684 | 0.437 | 0.38 | 0.403 | 0.38 | 0.146
15 | EKVX | 0.832 | 0.68 | 0.78 | 0.682 | 0.863 | 1.12 | 0.882 | 0.92 | 0.931 | 0.937 | 0.513 | 0.321 | 0.327 | 0.318 | 0.408 | 0.66 | 0.508 | 0.546 | 0.355 | 0.123
16 | NCI-H460 | 0.939 | 0.837 | 0.713 | 0.723 | 0.645 | 0.653 | 0.586 | 0.498 | 0.468 | 0.492 | 0.5 | 0.488 | 0.513 | 0.408 | 0.492 | 0.549 | 0.474 | 0.405 | 0.387 | 0.17
